# Measured values as given in patent US12398139B2, “Modulators of AMPA receptor signaling” (Centre for Addiction and Mental Health, priority 2019, dated 2025).
# Counter-ions that a name gives are not always drawn.
# Experiments:
# [1] = test system: HEK-293 cells expressing GAPDH and GluR2; test: AMPA mediated cell-death assay (CellTox Green Cytotoxicity Assay); assay type: cell-based; conditions: Homo sapiens, HEK293, AMPA 500 μM, CTZ 100 μM, CellTox Green fluorescence, read-out: Potency, inhibition of AMPA-mediated neurotoxicity (IC50, concentration at which 50% of cell death was prevented)
# Description: The ability of compounds to inhibit AMPA-mediated neurotoxicity was determined using the CellTox™ Green Cytotoxicity Assay (G8743) kit from Promega. In this assay, GAPDH and GluR2 are expressed in HEK-293 cells. AMPA (500 μM) was added to induce an AMPAR-mediated cell death signalling cascade. This is initiated by the GAPDH-GluR2 complex formation followed by the nuclear translocation of the complex, where it activates the p53-mediated cell death pathway. The presence of a compound which can block dimerization of GAPDH and GluR2 will prevent the nuclear translocation and the cell death and, thus this assay is an effective measure of the ability of a compound to prevent AMPA-mediated neurotoxicity and thus show therapeutic benefit in the treatment of MS.
# The assay was performed as per the manufacture's instruction. Briefly, 293 cells stably expressing GluR1 and GluR2VENUS were transfected with pcDNA-RluC-GAPDH. AMPA (500 μM) were added to induce the cell death. CTZ (100 μM) was added to prevent AMPAR desensitization. Candidate molecules were added before the AMPA treatment to test its protective effect. Untreated cells and AMPA treated group were used as negative and positive control respectively. CellTox™ Green Reagent (˜5×) was then added to achieve a final concentration of 1× and cells were incubated at room temperature for 15 minutes (shielded from ambient light). The fluorescence intensity at 485-500 nmEx/520-530 nmEm was then measured and calculated as the percentage value of the positive control. The concentration at which 50% of cell death was prevented (IC50) was determined for each compound.
# The potency was measured using the cell death assay described above.
# GluR2/GAPDH complex = molecular target: T1, GluR2/GAPDH complex (Homo sapiens, UniProt P42262); test: Surface plasmon resonance target engagement assay (competitive GluR2-Venus affinity with GAPDH); conditions: SPR, captured GluR2-VENUS, 100 nM GAPDH peptide, compound top concentration 10 μM; read-out: Potency, GluR2 Binding Affinity (competitive inhibition of GluR2-GAPDH interaction)
# T1 construct: host or cells: HEK293 cells stably transfected with GluR2-VENUS (lysate)
# T1 sequence (P42262 25-883, species assumed, one chain of several): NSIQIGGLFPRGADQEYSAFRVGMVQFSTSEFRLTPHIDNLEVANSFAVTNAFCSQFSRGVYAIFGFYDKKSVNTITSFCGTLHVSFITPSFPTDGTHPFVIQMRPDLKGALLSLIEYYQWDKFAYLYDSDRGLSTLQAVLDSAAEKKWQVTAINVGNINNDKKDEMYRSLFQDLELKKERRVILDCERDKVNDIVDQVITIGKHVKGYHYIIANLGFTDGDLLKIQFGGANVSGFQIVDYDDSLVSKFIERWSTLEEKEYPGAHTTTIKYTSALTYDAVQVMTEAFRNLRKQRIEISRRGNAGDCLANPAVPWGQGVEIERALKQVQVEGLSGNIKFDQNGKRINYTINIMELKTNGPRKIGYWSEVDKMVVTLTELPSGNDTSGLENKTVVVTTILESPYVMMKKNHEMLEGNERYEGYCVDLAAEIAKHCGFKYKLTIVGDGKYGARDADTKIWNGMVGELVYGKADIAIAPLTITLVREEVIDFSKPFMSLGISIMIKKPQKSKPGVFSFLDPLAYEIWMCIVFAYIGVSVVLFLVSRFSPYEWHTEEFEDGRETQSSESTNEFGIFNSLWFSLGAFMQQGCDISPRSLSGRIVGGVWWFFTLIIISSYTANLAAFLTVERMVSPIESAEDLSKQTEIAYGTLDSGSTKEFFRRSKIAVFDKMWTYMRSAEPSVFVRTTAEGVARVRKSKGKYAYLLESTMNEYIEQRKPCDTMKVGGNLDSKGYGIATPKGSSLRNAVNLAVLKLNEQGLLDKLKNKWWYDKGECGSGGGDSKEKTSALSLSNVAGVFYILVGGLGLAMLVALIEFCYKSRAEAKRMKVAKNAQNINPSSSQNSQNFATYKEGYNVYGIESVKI
# Description: This is one of the most commonly used techniques to study modulation of protein-protein interactions by small molecule ligands, providing real-time measurement of binding affinities and association/dissociation kinetics of complexes (compound/protein) in a label-free environment. The ability of our lead compound to disrupt the interaction of GluR2/GAPDH complex was measured by the binding affinity. Compounds were analyzed for competitive GluR2-Venus protein affinity (with GAPDH recombinant protein) using a Reichert 2SPR system. The surface was first charged with nickel (500 μM NiCl2 in HBS-P buffer for 300 s at a flow rate of 5 μL/min). The dextran surface was then activated with a 1:1 mixture of N-ethyl-N-dimethylaminopropylcarbodiimide (EDC) and N-hydroxysuccinimide (NHS) on line for final concentrations of EDC and NHS of 37.5 mg/mL and 5.8 mg/mL, respectively, for 420 s at a flow rate of 25 μL/min. Anti-VENUS antibody was first immobilized by capture onto a 500 KDa CM Dextran sensor chip (Reichert), proceeded by activation of the carboxymethylated dextran surface for mild amine coupling, followed by a final blocking injection of 1 M ethanolamine, pH 8.5. GluR2-VENUS (lysate of HEK293 cells stably transfected with GluR2-VENUS) was then captured for 900 s at a flow rate of 25 μL/min followed by a final blocking injection of 2% BSA, for 300 s at a flow rate of 5 μL/min.
# The surface plasmon resonance affinity assay was carried out in a PBS buffer consisting of 0.05% Tween 20. For affinity measurements, compound solutions were prepared using ten three-fold serial dilutions in running buffer from a 10 μM top concentration (prepared from DMSO stocks) along with a zero (running buffer) control, mixed with 100 nM GAPDH peptide (Sigma Aldrich). A flow rate of 30 μl/min was used with a 420 s contact time (using high performance injection parameters) followed by a 120 s dissociation phase. Results were analyzed by subtracting the signals of the reference surface from the signals for the protein-bound surfaces and performing a solvent correction. Competitive binding responses were normalized throughout the screen to the percentage of inhibition of the respective small molecule compound. Three independent experiments were performed.
# The binding affinity was measured using the surface plasmon resonance assay described above.
SMILES,IC50 (GluR2/GAPDH complex) [nM],IC50 [1] [nM]
"O=C(c1ccnc(N2Cc3cn(Cc4ccc(F)cc4)nc3C2)n1)N1CCOCC1 [Compound 211, (2-(2-(4-Fluorobenzyl)-2,6-dihydropyrrolo[3,4-c]pyrazol-5(4H)-yl)pyrimidin-4-yl)(morpholino)methanone]",34,44
"CN1CCN(C(=O)c2ccnc(N3Cc4cn(Cc5ccc(F)cc5)nc4C3)n2)CC1 [Compound 212, (2-(2-(4-Fluorobenzyl)-2,6-dihydropyrrolo[3,4-c]pyrazol-5(4H)-yl)pyrimidin-4-yl)(4-methylpiperazin-1-yl)methanone]",31,20
"N#Cc1cccc(N2Cc3cn(Cc4ccc(F)cc4)nc3C2)c1 [Compound 240, 3-(2-(4-Fluorobenzyl)-2,6-dihydropyrrolo[3,4-c]pyrazol-5(4H)-yl)benzonitrile]",26,35
"CN(C)C(=O)c1cccc(N2Cc3cn(CC4CC4)nc3C2)c1 [Compound 247, 3-(2-(Cyclopropylmethyl)-2,6-dihydropyrrolo[3,4-c]pyrazol-5(4H)-yl)-N,N-dimethylbenzamide]",148,36
"Cc1ccc(Cn2cc3c(n2)CN(c2cncc(C(=O)N(C)C)n2)C3)cc1 [Compound 234, N,N-Dimethyl-6-(2-(4-methylbenzyl)-2,6-dihydropyrrolo[3,4-c]pyrazol-5(4H)-yl)pyrazine-2-carboxamide]",139,114
"CN(C)C(=O)c1cncc(N2Cc3cn(CC4CCCCC4)nc3C2)n1 [Compound 238, 6-(2-(Cyclohexylmethyl)-2,6-dihydropyrrolo[3,4-c]pyrazol-5(4H)-yl)-N,N-dimethylpyrazine-2-carboxamide]",102,167
"CN(C)C(=O)c1cncc(N2Cc3cnn(Cc4ccc(F)cc4)c3C2)n1 [REF, reference compound]",> 1000,200
"CN1CCN(C(=O)c2cccc(N3Cc4cn(Cc5ccc(F)cc5)nc4C3)c2)CC1 [Compound 218, (3-(2-(4-Fluorobenzyl)-2,6-dihydropyrrolo[3,4-c]pyrazol-5(4H)-yl)phenyl)(4-methylpiperazin-1-yl)methanone]",99,33
"O=C(c1cccc(N2Cc3cn(Cc4ccc(F)cc4)nc3C2)c1)N1CCCC1 [Compound 243, (3-(2-(4-Fluorobenzyl)-2,6-dihydropyrrolo[3,4-c]pyrazol-5(4H)-yl)phenyl)(pyrrolidin-1-yl)methanone]",130,1150
"COc1ccc(Cn2cc3c(n2)CN(c2cncc(C(=O)N(C)C)n2)C3)cc1 [Compound 232, 6-(2-(4-Methoxybenzyl)-2,6-dihydropyrrolo[3,4-c]pyrazol-5(4H)-yl)-N,N-dimethylpyrazine-2-carboxamide]",88,54
"CN(C)C(=O)c1ccc(N2Cc3cn(Cc4ccc(F)cc4)nc3C2)cc1 [Compound 246, 4-(2-(4-Fluorobenzyl)-2,6-dihydropyrrolo[3,4-c]pyrazol-5(4H)-yl)-N,N-dimethylbenzamide]",440,8.6

# The remaining compounds from weak to strong by IC50 (GluR2/GAPDH complex), led by results:
IC50 (GluR2/GAPDH complex) [nM],SMILES,IC50 [1] [nM]
1070,"Cc1ccc(Cn2cc3c(n2)CN(c2cccc(C(=O)N(C)C)c2)C3)cc1 [Compound 235, N,N-Dimethyl-3-(2-(4-methylbenzyl)-2,6-dihydropyrrolo[3,4-c]pyrazol-5(4H)-yl)benzamide]",656
275,"CN(C)C(=O)c1cncc(N2Cc3cn(Cc4cccc(F)c4)nc3C2)n1 [Compound 236, 6-(2-(3-Fluorobenzyl)-2,6-dihydropyrrolo[3,4-c]pyrazol-5(4H)-yl)-N,N-dimethylpyrazine-2-carboxamide]",5000
206,"N#Cc1cncc(N2Cc3cn(Cc4ccc(F)cc4)nc3C2)n1 [Compound 245, 6-(2-(4-Fluorobenzyl)-2,6-dihydropyrrolo[3,4-c]pyrazol-5(4H)-yl)pyrazine-2-carbonitrile]",771
99,"O=C(NC1CCCCC1)c1ccnc(N2Cc3cn(Cc4ccc(F)cc4)nc3C2)n1 [Compound 209, N-Cyclohexyl-2-(2-(4-fluorobenzyl)-2,6-dihydropyrrolo[3,4-c]pyrazol-5(4H)-yl)pyrimidine-4-carboxamide]",66
86,"CCN(CC)C(=O)c1cncc(N2Cc3cn(Cc4ccc(F)cc4)nc3C2)n1 [Compound 231, N,N-Diethyl-6-(2-(4-fluorobenzyl)-2,6-dihydropyrrolo[3,4-c]pyrazol-5(4H)-yl)pyrazine-2-carboxamide]",250
85,"O=C(c1cccc(N2Cc3cn(Cc4ccc(F)cc4)nc3C2)c1)N1CCNCC1 [Compound 220, (3-(2-(4-Fluorobenzyl)-2,6-dihydropyrrolo[3,4-c]pyrazol-5(4H)-yl)phenyl)(piperazin-1-yl)methanone hydrochloride]",15
67,"CN(C)C(=O)c1cccc(N2Cc3cn(Cc4ccc(F)cc4)nc3C2)c1 [Compound 217, 3-(2-(4-Fluorobenzyl)-2,6-dihydropyrrolo[3,4-c]pyrazol-5(4H)-yl)-N,N-dimethylbenzamide]",6.7
41,"CN(C)C(=O)c1cccc(N2Cc3cn(CC4CCCCC4)nc3C2)c1 [Compound 239, 3-(2-(Cyclohexylmethyl)-2,6-dihydropyrrolo[3,4-c]pyrazol-5(4H)-yl)-N,N-dimethylbenzamide]",26
33,"COc1ccc(Cn2cc3c(n2)CN(c2cccc(C(=O)N(C)C)c2)C3)cc1 [Compound 233, 3-(2-(4-Methoxybenzyl)-2,6-dihydropyrrolo[3,4-c]pyrazol-5(4H)-yl)-N,N-dimethylbenzamide]",62
30,"CN(C)C(=O)c1cccc(N2Cc3cn(Cc4cccc(F)c4)nc3C2)c1 [Compound 237, 3-(2-(3-Fluorobenzyl)-2,6-dihydropyrrolo[3,4-c]pyrazol-5(4H)-yl)-N,N-dimethylbenzamide]",47
24,"O=C(NC1CCCCC1)c1cncc(N2Cc3cn(Cc4ccc(F)cc4)nc3C2)n1 [Compound 214, N-Cyclohexyl-6-(2-(4-fluorobenzyl)-2,6-dihydropyrrolo[3,4-c]pyrazol-5(4H)-yl)pyrazine-2-carboxamide]",46
20,O=C(NC1CCCC1)c1ccnc(N2Cc3cn(Cc4ccc(F)cc4)nc3C2)n1 [Compound 213],24
20,"N#Cc1ccnc(N2Cc3cn(Cc4ccc(F)cc4)nc3C2)n1 [Compound 241, 2-(2-(4-Fluorobenzyl)-2,6-dihydropyrrolo[3,4-c]pyrazol-5(4H)-yl)pyrimidine-4-carbonitrile]",72
14,"O=C(NCC(F)(F)F)c1cccc(N2Cc3cn(Cc4ccc(F)cc4)nc3C2)c1 [Compound 219, 3-(2-(4-Fluorobenzyl)-2,6-dihydropyrrolo[3,4-c]pyrazol-5(4H)-yl)-N-(2,2,2-trifluoroethyl)benzamide]",28
2.4,"O=C(c1ccnc(N2Cc3cn(Cc4ccc(F)cc4)nc3C2)n1)N1CCCCC1 [Compound 244, (2-(2-(4-Fluorobenzyl)-2,6-dihydropyrrolo[3,4-c]pyrazol-5(4H)-yl)pyrimidin-4-yl)(piperidin-1-yl)methanone]",2.4
